US20250114329A1, “METHODS FOR TREATING AML-MRC AND MDS” (Ascentage Pharma (Suzhou) Co., LTD, priority 2022, published 2025)

Experiments:
[1] = test system: R/R AML with myelodysplasia-related changes; test: Phase Ib/II study of Compound C alone or in combination with 5-azacitidine or cytarabine (Example 2); type: in vivo, human; conditions: Compound C alone, person, R/R AML-MRC
Source text: This was a three parts study in patients with relapsed/refractory acute myeloid leukemia (AML), relapsed or progressed high or very high risk myelodysplastic syndrome (MDS) that was designed to evaluate the safety and tolerability of Compound C as a single agent in Part I, followed by a combination dose escalation of Compound C plus either 5-azacitidine or cytarabine in Part II and a dose expansion of the combination treatment in part III. Part I: Dose escalation of Compound C will use standard 3+3 design. Compound C will be administered orally once daily (QD) on Day 1 to 7 every 28-day cycle. The starting target dose is 100 mg (dose level; DL1) and will be increased in subsequent cohorts to 150 mg (DL2), 200 mg (DL3) and 250 mg (DL4), accordingly. Part II: Dose escalation of Compound C combination with either 5-azacitidine or cytarabine, which includes two Arms, Arm A and Arm B. Arm A will enroll patients with relapsed or progressed high or very high risk MDS and Arm B will enroll patients with R/R AML. In this part, 5-azacitidine and cytarabine will be administered with fixed dose. The starting dose of Compound C was 100 mg and will be increased subsequently to 150 mg and 200 mg. In Arm A, Compound C will be co-administered with 5-azacitidine subcutaneously injected at 75 mg/m^2 once daily on Day 1 to 7 every 28-day cycle. In Arm B, Compound C will be co-administered once daily on Day 1 to 7 every 28-day cycle with cytarabine intravenously administered at 1 g/m^2 once daily on Day 3 to 7 every 28-day cycle.

H929 cells = test: Western Blotting assay; type: cell-based, human; conditions: 24 hrs or 48 hrs
Procedure: After treatments with single or combined test articles, cultured cells were harvested and washed with ice-cold PBS. Cell pellets were lysed in RIPA buffer containing 1% PMSF, 1% phosphatase inhibitor, and 1% protease inhibitors. Protein concentrations were determined using the BCA Protein Assay Kit. Whole tumor lysates ([…]) were separated on an 8-12% SDS-PAGE. The separated proteins were transferred to a PVDF membrane. The PVDF membrane was blocked with 1-3% BSA buffer for 30 min to 1 hour at room temperature. Incubate membrane with diluted primary antibody in 1×TBST containing 1-3% BSA at 4° C., with gentle agitation overnight. Wash the membrane with 1×TBST three times. Incubate membrane with HRP-conjugated secondary antibody with gentle agitation for 1 hour at room temperature. Wash the membrane with 1×TBST three times. The signals were visualized with Super ECL Detection Reagent and detected by chemiluminescence imaging system.

[2] = test system: relapsed/refractory AML, CMML or MDS (AML-MRC subject); test: Phase Ib/II study of Compound C alone or in combination with azacitidine (Example 1); type: in vivo, human; conditions: Compound C alone, 150 mg
Source text: This was a two part study in patients with relapsed/refractory (R/R) acute myeloid leukemia (AML), Chronic Myelomonocytic Leukemia (CMML) and relapsed/progressed higher-risk myelodysplastic syndrome (MDS), that was designed to evaluate the safety and tolerability of Compound C as a single agent in Part I, followed by a combination of Compound C plus 5-azacitidine in Part II. Part I: Dose escalation of Compound C will use standard 3+3 design. Compound C will be administered orally once daily (QD) on Day 1 to 5 every 28-day cycle. The starting target dose is 100 mg (dose level; DL1) and will be increased in subsequent cohorts to 150 mg (DL2), 200 mg (DL3) and 250 mg (DL4), accordingly. Part II: Compound C will be co-administered with 5-azacitidine SC or IV at 75 mg/m^2 once daily on 7 out of 9 days from Day 1 to Day 9 every 28-day cycle.

CCN1[C@@H](C(=O)NC23CCC(C(=O)O)(CC2)CC3)[C@H](c2cccc(Cl)c2F)[C@]2(C(=O)Nc3cc(Cl)ccc32)C12CCCCC2 [Compound C, alrizomadlin]
Response ([1]; 100 mg, prior D-CAG, C1D62): CRi
Response ([1]; 200 mg, prior D-CAG, C3D21): CRi
Response ([1]; 250 mg, several prior regimens): MLFS
P53, MDM2 and P21 expression (H929 cells): upregulated
End of cycle 1 disease assessment ([2]; person, AML-MRC (TP53w, FLT3-, IDH1/2-), prior venetoclax + decitabine): CRi
Blast at C2D1 ([2]; reduced from 43%, Day 1 of cycle 2): to 13%
Blast at C3D1 ([2]; reduced from 43%, Day 1 of cycle 3): C2D1, to 3%
